Columns and labels:
human DLK [1] = target: T1, human DLK (Homo sapiens (Human), UniProt Q12852); assay: biochemical; assay type: binding; conditions: Table 2b DLK activity (global); read-out: Kd
Protocol: The DLK dissociation constants (Kd) have been determined in the KINOMEscan KdELECT Service at DiscoveRx.
A fusion protein of full length of human DLK (amino acids 1-859) and the DNA binding domain of NFkB was expressed in transiently transfected HEK293 cells. From these HEK 293 cells, extracts were prepared in M-PER extraction buffer (Pierce) in the presence of Protease Inhibitor Cocktail Complete (Roche) and Phosphatase Inhibitor Cocktail Set II (Merck) per manufacturers' instructions. The DLK fusion protein was labeled with a chimeric double-stranded DNA tag containing the NFkB binding site (5′-[sequence]-3′) fused to an amplicon for qPCR readout, which was added directly to the expression extract (the final concentration of DNA-tag in the binding reaction is 0.1 nM).
The liganded beads were blocked with excess biotin and washed with blocking buffer (SeaBlock (Pierce), 1% BSA, 0.05% Tween 20, 1 mM DTT) to remove unbound ligand and to reduce nonspecific binding.
Extracts were used directly in binding assays without any enzyme purification steps at a ≥10,000-fold overall stock dilution (final DNA-tagged enzyme concentration <0.1 nM). Extracts were loaded with DNA-tag and diluted into the binding reaction in a two step process. First extracts were diluted 1:100 in 1× binding buffer (PBS/0.05% Tween 20/10 mM DTT/0.1% BSA/2 μg/ml sonicated salmon sperm DNA) containing 10 nM DNA-tag. This dilution was allowed to equilibrate at room temperature for 15 minutes and then subsequently diluted 1:100 in 1× binding buffer. Test compounds were prepared as 111× stocks in 100% DMSO. Kds were determined using an 11-point 3-fold compound dilution series with three DMSO control points. […] The compounds were then diluted directly into the assays such that the final concentration of DMSO was 0.9%. All reactions performed in polypropylene 384-well plates. Each was a final volume of 0.02 mL. Assays were incubated with shaking for 1 hour at room temperature. Then the beads were pelleted and washed with wash buffer (1×PBS, 0.05% Tween 20) to remove displaced kinase and test compound. […] The kinase concentration in the eluates was measured by qPCR. qPCR reactions were assembled by adding 2.5 μL of kinase eluate to 7.5 μL of qPCR master mix containing 0.15 μM amplicon primers and 0.15 μM amplicon probe. The qPCR protocol consisted of a 10 minute hot start at 95° C., followed by 35 cycles of 95° C. for 15 seconds, 60° C. for 1 minute.
Test compounds were prepared as 11× stocks in 100% DMSO. Kds were determined using an 11-point 3-fold compound dilution series with three DMSO control points. […] The compounds were then diluted directly into the assays such that the final concentration of DMSO was 0.9%. The Kds were determined using a compound top concentration of 30,000 nM. Kd measurements were performed in duplicate.
Binding constants (Kds) were calculated with a standard dose-response curve using the Hill equation:
The Hill Slope was set to −1.

human DLK [2] = target: T1, human DLK; assay: cell-based; conditions: Table 2b (global); additional assay runs on multiple batches, includes Table 2a data in the averaging; p-cJun (Ser63), HEK293; read-out: Cell IC50
Protocol: HEK293 cells stably transfected with a Dox-inducible human DLK were plated into a 384-well plate in 20 μl (40,000 cells/well) of DMEM medium (without phenol red) containing 10% fetal bovine serum, 1.5 μg/ml doxycycline and 1 μg/ml puromycin. The cells as negative control were grown in the absence of doxycycline. The plate was incubated at 37° C., 5% CO2 for 20 h, before DMSO (control) or compounds diluted in medium were added. The cells were incubated at 37° C. for an additional 5 h, followed by lysis and the addition detection antibodies from p-cJun (Ser63) cellular assay kit (Cisbio) per manufacturer protocol. The standard dose response curves were fitted by Genedata Screener software using the variable-slope model: Signal=Signalnegative control+(SignalDMSO control−Signalnegative control)/(1+(IC50/Dose)^Hill slope). Only signal and dose in the equation were treated as known values.

C[C@H](O)c1nc(-c2cnc(N)c(C(F)(F)F)c2)cn1C12CC(C1)C2 [Example 33, (S)-1-(4-(6-amino-5-(trifluoromethyl)pyridin-3-yl)-1-(bicyclo[1.1.1]pentan-1-yl)-1H-imidazol-2-yl)ethan-1-ol]
Kd (human DLK [1]): 9.7 nM | IC50 (human DLK [2]): 207 nM

Nc1ncc(-c2cn(C34CC(N5CCOCC5)(C3)C4)c(CC3CC3)n2)cc1OC(F)F [Example 36, 5-(2-(cyclopropylmethyl)-1-(3-morpholinobicyclo[1.1.1]pentan-1-yl)-1H-imidazol-4-yl)-3-(difluoromethoxy)pyridin-2-amine]
Kd (human DLK [1]): 22 nM | IC50 (human DLK [2]): 500 nM

Nc1ncc(-c2cn(C34CC(N5CCOCC5)(C3)C4)c(C3CC3)n2)cc1OC(F)F [Example 37, 5-(2-cyclopropyl-1-(3-morpholinobicyclo[1.1.1]pentan-1-yl)-1H-imidazol-4-yl)-3-(difluoromethoxy)pyridin-2-amine]
Kd (human DLK [1]): 19 nM | IC50 (human DLK [2]): 351 nM

CC(C)c1nc(-c2cnc(N)c(OC(F)F)c2)cn1C12CC(N3CCOCC3)(C1)C2 [Example 38, 3-(difluoromethoxy)-5-(2-isopropyl-1-(3-morpholinobicyclo[1.1.1]pentan-1-yl)-1H-imidazol-4-yl)pyridin-2-amine]
Kd (human DLK [1]): 19 nM | IC50 (human DLK [2]): 709 nM

CC(C)(C)Cc1nc(-c2cnc(N)c(OC(F)(F)F)c2)cn1C12CC(N3CCOCC3)(C1)C2 [Example 39, 5-(1-(3-morpholinobicyclo[1.1.1]pentan-1-yl)-2-neopentyl-1H-imidazol-4-yl)-3-(trifluoromethoxy)pyridin-2-amine]
Kd (human DLK [1]): 210 nM | IC50 (human DLK [2]): 4040 nM

CC(C)(C)Cc1nc(-c2cnc(N)c(C(F)(F)F)c2)cn1C12CC(N3CCOCC3)(C1)C2 [Example 40, 5-(1-(3-morpholinobicyclo[1.1.1]pentan-1-yl)-2-neopentyl-1H-imidazol-4-yl)-3-(trifluoromethyl)pyridin-2-amine]
Kd (human DLK [1]): 66 nM | IC50 (human DLK [2]): 2460 nM

Nc1ncc(-c2cn(C34CC(N5CCOCC5)(C3)C4)c(C3CCC3)n2)cc1OC(F)(F)F [Example 43, 5-(2-cyclobutyl-1-(3-morpholinobicyclo[1.1.1]pentan-1-yl)-1H-imidazol-4-yl)-3-(trifluoromethoxy)pyridin-2-amine]
Kd (human DLK [1]): 32 nM | IC50 (human DLK [2]): 598 nM

Nc1ncc(-c2cn(C34CC(N5CCOCC5)(C3)C4)c(C3CCCC3)n2)cc1OC(F)(F)F [Example 44, 5-(2-cyclopentyl-1-(3-morpholinobicyclo[1.1.1]pentan-1-yl)-1H-imidazol-4-yl)-3-(trifluoromethoxy)pyridin-2-amine]
Kd (human DLK [1]): 53 nM | IC50 (human DLK [2]): 841 nM

CC(C)Cc1nc(-c2cnc(N)c(OC(F)(F)F)c2)cn1C12CC(N3CCOCC3)(C1)C2 [Example 45, 5-(2-isobutyl-1-(3-morpholinobicyclo[1.1.1]pentan-1-yl)-1H-imidazol-4-yl)-3-(trifluoromethoxy)pyridin-2-amine]
Kd (human DLK [1]): 15 nM | IC50 (human DLK [2]): 761 nM

CC(C)Cc1nc(-c2cnc(N)c(C(F)(F)F)c2)cn1C12CC(N3CCOCC3)(C1)C2 [Example 47, 5-(2-isobutyl-1-(3-morpholinobicyclo[1.1.1]pentan-1-yl)-1H-imidazol-4-yl)-3-(trifluoromethyl)pyridin-2-amine]
Kd (human DLK [1]): 6 nM | IC50 (human DLK [2]): 655 nM

Nc1ncc(-c2cn(C34CC(N5CCOCC5)(C3)C4)c(CC(F)(F)F)n2)cc1OC(F)(F)F [Example 48, 5-(1-(3-morpholinobicyclo[1.1.1]pentan-1-yl)-2-(2,2,2-trifluoroethyl)-1H-imidazol-4-yl)-3-(trifluoromethoxy)pyridin-2-amine]
Kd (human DLK [1]): 13 nM | IC50 (human DLK [2]): 413 nM

CCC(C)c1nc(-c2cnc(N)c(OC(F)(F)F)c2)cn1C12CC(N3CCOCC3)(C1)C2 (stereo not shown) [Example 49, 5-(2-(sec-butyl)-1-(3-morpholinobicyclo[1.1.1]pentan-1-yl)-1H-imidazol-4-yl)-3-(trifluoromethoxy)pyridin-2-amine]
Kd (human DLK [1]): 8.6 nM | IC50 (human DLK [2]): 290 nM

CCC(C)c1nc(-c2cnc(N)c(OC(F)F)c2)cn1C12CC(N3CCOCC3)(C1)C2 (stereo not shown) [Example 51, 5-(2-(sec-butyl)-1-(3-morpholinobicyclo[1.1.1]pentan-1-yl)-1H-imidazol-4-yl)-3-(difluoromethoxy)pyridin-2-amine]
Kd (human DLK [1]): 21 nM | IC50 (human DLK [2]): 763 nM

CC(C)c1nc(-c2cnc(N)c(C(F)(F)F)c2)cn1C12CC(C1)C2 [Example 52, 5-(1-(bicyclo[1.1.1]pentan-1-yl)-2-isopropyl-1H-imidazol-4-yl)-3-(trifluoromethyl)pyridin-2-amine]
Kd (human DLK [1]): 49 nM | IC50 (human DLK [2]): 850 nM

CCC(O)c1nc(-c2cnc(N)c(OC(F)(F)F)c2)cn1C12CC(C1)C2 (stereo not shown) [Example 54, 1-(4-(6-amino-5-(trifluoromethoxy)pyridin-3-yl)-1-(bicyclo[1.1.1]pentan-1-yl)-1H-imidazol-2-yl)propan-1-ol]
Kd (human DLK [1]): 11 nM | IC50 (human DLK [2]): 319 nM

CC(O)c1nc(-c2cnc(N)c(OC(F)(F)F)c2)cn1C12CC(C1)C2 (stereo not shown) [Example 55, 1-(4-(6-amino-5-(trifluoromethoxy)pyridin-3-yl)-1-(bicyclo[1.1.1]pentan-1-yl)-1H-imidazol-2-yl)ethan-1-ol]
Kd (human DLK [1]): 14 nM | IC50 (human DLK [2]): 443 nM

Nc1ncc(-c2cn(C34CC(C3)C4)c(C(O)C3CC3)n2)cc1OC(F)(F)F (stereo not shown) [Example 56, (4-(6-amino-5-(trifluoromethoxy)pyridin-3-yl)-1-(bicyclo[1.1.1]pentan-1-yl)-1H-imidazol-2-yl)(cyclopropyl)methanol]
Kd (human DLK [1]): 5.1 nM | IC50 (human DLK [2]): 275 nM

CC(C)C(O)c1nc(-c2cnc(N)c(OC(F)(F)F)c2)cn1C12CC(C1)C2 (stereo not shown) [Example 57, 1-(4-(6-amino-5-(trifluoromethoxy)pyridin-3-yl)-1-(bicyclo[1.1.1]pentan-1-yl)-1H-imidazol-2-yl)-2-methylpropan-1-ol]
Kd (human DLK [1]): 0.62 nM | IC50 (human DLK [2]): 38.6 nM

Nc1ncc(-c2cn(C34CC(C3)C4)c(CO)n2)cc1C(F)(F)F [Example 58, (4-(6-amino-5-(trifluoromethyl)pyridin-3-yl)-1-(bicyclo[1.1.1]pentan-1-yl)-1H-imidazol-2-yl)methanol]
Kd (human DLK [1]): 18 nM | IC50 (human DLK [2]): 846 nM

CC(C)C(O)c1nc(-c2cnc(N)c(C(F)(F)F)c2)cn1C12CC(C1)C2 (stereo not shown) [Example 59, 1-(4-(6-amino-5-(trifluoromethyl)pyridin-3-yl)-1-(bicyclo[1.1.1]pentan-1-yl)-1H-imidazol-2-yl)-2-methylpropan-1-ol]
Kd (human DLK [1]): 0.29 nM | IC50 (human DLK [2]): 20.9 nM

CCC(O)c1nc(-c2cnc(N)c(C(F)(F)F)c2)cn1C12CC(C1)C2 (stereo not shown) [Example 61, 1-(4-(6-amino-5-(trifluoromethyl)pyridin-3-yl)-1-(bicyclo[1.1.1]pentan-1-yl)-1H-imidazol-2-yl)propan-1-ol]
Kd (human DLK [1]): 2.1 nM | IC50 (human DLK [2]): 167 nM

Nc1ncc(-c2cn(C34CC(N5CCOCC5)(C3)C4)c(C=O)n2)cc1OC(F)(F)F [Example 66, 4-(6-amino-5-(trifluoromethoxy)pyridin-3-yl)-1-(3-morpholinobicyclo[1.1.1]pentan-1-yl)-1H-imidazole-2-carbaldehyde]
Kd (human DLK [1]): 44 nM | IC50 (human DLK [2]): 1400 nM

CN1CCN(C23CC(n4cc(-c5cnc(N)c(OC(F)(F)F)c5)nc4CC4CC4)(C2)C3)CC1 [Example 72, 5-(2-(cyclopropylmethyl)-1-(3-(4-methylpiperazin-1-yl)bicyclo[1.1.1]pentan-1-yl)-1H-imidazol-4-yl)-3-(trifluoromethoxy)pyridin-2-amine]
Kd (human DLK [1]): 19 nM | IC50 (human DLK [2]): 1160 nM

CN1CCN(C23CC(n4cc(-c5cnc(N)c(OC(F)F)c5)nc4CC4CC4)(C2)C3)CC1 [Example 73, 5-(2-(cyclopropylmethyl)-1-(3-(4-methylpiperazin-1-yl)bicyclo[1.1.1]pentan-1-yl)-1H-imidazol-4-yl)-3-(difluoromethoxy)pyridin-2-amine]
Kd (human DLK [1]): 18 nM | IC50 (human DLK [2]): 624 nM

CC(C)c1nc(-c2cnc(N)c(OC(F)(F)F)c2)cn1C12CC(N3CCN(C)CC3)(C1)C2 [Example 74, 5-(2-isopropyl-1-(3-(4-methylpiperazin-1-yl)bicyclo[1.1.1]pentan-1-yl)-1H-imidazol-4-yl)-3-(trifluoromethoxy)pyridin-2-amine]
Kd (human DLK [1]): 4.5 nM | IC50 (human DLK [2]): 196 nM

CN1CCN(C23CC(n4cc(-c5cnc(N)c(C(F)(F)F)c5)nc4C4CC4)(C2)C3)CC1 [Example 75, 5-(2-cyclopropyl-1-(3-(4-methylpiperazin-1-yl)bicyclo[1.1.1]pentan-1-yl)-1H-imidazol-4-yl)-3-(trifluoromethyl)pyridin-2-amine]
Kd (human DLK [1]): 7.5 nM | IC50 (human DLK [2]): 256 nM

From patent US10093664B2, “Bicyclo[1.1.1]pentane inhibitors of dual leucine zipper (DLK) kinase for the treatment of disease” (priority 2016, dated 2018)
